Assay type in all cases: cell-based, human
One experiment deals with HTT mRNA. Put plainly: Splicing RT-qPCR assay, HTT canonical (CJ) and alternative (AJ) junction mRNA. Conditions: Homo sapiens; for IC50: canonical junction mRNA; for AC50: alternative junction mRNA, read-out: HTT AJ (AC50, increase in AJ mRNA). The method, boiled down:
(§1)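 Cmpd 24 h, 37 °C/5% CO2; 11-pt 3x serial dilution from 10 uM final; DMSO max 0.25%. Cells: A673 (DMEM/10% FBS, pre-adhered 24 h) or K562 (IMDM/10% FBS). Lyse, DNase I, then 1-step RT-qPCR for CJ and AJ; housekeeping-normalized.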
On the technique in general: Real-time PCR tracks product formation cycle by cycle.

A further experiment deals with Target C mRNA. Kind of experiment: Splicing RT-qPCR panel, Target C canonical junction (CJ) mRNA. Conditions: Homo sapiens, read-out: Target C CJ (decrease in CJ mRNA levels, IC50). The procedure, abridged: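 A673 cells (DMEM, 10% FBS) or K562 cells (IMDM, 10% FBS) treated 24 h at 37 °C with an 11-point 3-fold dilution, top 10 uM, DMSO ≤0.25%. Canonical-junction mRNA quantified in lysates by RT-qPCR, normalised to GAPDH, GUSB or PPIA and to DMSO (2^−ΔΔCt), then converted to % response.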

For another experiment, the system named is MYB mRNA. Put plainly: Splicing RT-qPCR assay, MYB canonical (CJ) and alternative (AJ) junction mRNA. Conditions: Homo sapiens; for IC50: canonical junction mRNA; for AC50: alternative junction mRNA, read-out: MYB AJ (AC50, increase in AJ mRNA). The procedure, abridged:
as §1

The mark [1] stands for this setting: 24 h, RT-qPCR, A673 or K562 cells, 24 hours treatment, read-out: HTT CJ (IC50, decrease in CJ mRNA).
[2] abbreviates: qPCR panel, read-out: HTT CJ (decrease in CJ mRNA levels, IC50).
The mark [3] stands for this setting: RT-qPCR, A673 or K562 cells, 24 hours treatment.
The mark [4] stands for this setting: qPCR panel, read-out: MYB CJ (decrease in CJ mRNA levels, IC50).
[5] abbreviates: RT-qPCR, A673 or K562 cells, 24 hours treatment, read-out: MYB CJ (IC50, decrease in CJ mRNA).

Like-named read-outs stand apart in the source and are kept apart here.

This is an account of results in patent US20250326748A1, “COMPOUNDS AND METHODS FOR MODULATING SPLICING” (REMIX THERAPEUTICS INC., priority 2022, published 2025).

Take `Cc1cn2nc(-c3cc(Cl)c4cc(N5CCC(N(C)C)CC5)cnc4n3)cc(C)c2n1` [Compound 348]: the IC50 in the experiment with HTT mRNA (setting [1]) is 100 to 1000 nM; with HTT mRNA (setting [2]), 100 to 1000 nM; with Target C mRNA, 1000 to 10000 nM; with MYB mRNA (setting [4]), 100 to 1000 nM; in the experiment with MYB mRNA (setting [5]), 100 to 1000 nM. Moreover, the AC50 in the experiment on HTT mRNA (setting [3]) and with MYB mRNA (setting [3]) was 100 to 1000 nM in each case.

Consider `Cc1cn2nc(-c3cc(Cl)c4cc(N5CCC(N6CCC6)CC5)cnc4n3)cc(C)c2n1` [Compound 349], for which the IC50 in the experiment with HTT mRNA (setting [1]), with HTT mRNA (setting [2]), in the experiment on Target C mRNA, with MYB mRNA (setting [4]) and with MYB mRNA (setting [5]) was 100 to 1000 nM in each case. In addition, the AC50 in the experiment with HTT mRNA (setting [3]) and in the experiment with MYB mRNA (setting [3]) was 100 to 1000 nM in each case.

As to `Cc1cn2cc(-c3ccc4cc(N5C[C@@H](C)N[C@@H](C)C5)cnc4n3)cc(F)c2n1` [Compound 350], the IC50 with HTT mRNA (setting [1]) is over 10000 nM; with HTT mRNA (setting [2]), over 10000 nM; in the experiment with Target C mRNA, over 10000 nM; in the experiment with MYB mRNA (setting [4]), 100 to 1000 nM; in the experiment on MYB mRNA (setting [5]), 100 to 1000 nM. For the same compound, the AC50 in the experiment with HTT mRNA (setting [3]) was over 10000 nM; in the experiment on MYB mRNA (setting [3]) it was 1000 to 10000 nM.

On to `Cc1c(O)c(-c2cc(Cl)c3cc(N4CCNC5(CC5)C4)cnc3n2)cc2cn(C)nc12` [Compound 381], for which the IC50 with HTT mRNA (setting [1]) is 100 to 1000 nM; in the experiment with HTT mRNA (setting [2]) it was 100 to 1000 nM; in the experiment on Target C mRNA, 1000 to 10000 nM; in the experiment on MYB mRNA (setting [4]) it was under 100 nM; with MYB mRNA (setting [5]), under 100 nM. The figures for the AC50 with HTT mRNA (setting [3]) and with MYB mRNA (setting [3]) were 100 to 1000 nM and under 100 nM, respectively.

For `Cc1cn2nc(-c3ccc4c(Cl)c(N5C[C@H](C)N[C@@H](C)C5)cnc4n3)cc(C)c2n1` [Compound 393, 5-chloro-2-{2,8-dimethylimidazo[1,2-b]pyridazin-6-yl}-6-[(3S,5S)-3,5-dimethylpiperazin-1-yl]-1,8-naphthyridine], the IC50 with HTT mRNA (setting [1]) was 100 to 1000 nM; in the experiment with HTT mRNA (setting [2]), 100 to 1000 nM; with Target C mRNA it was 1000 to 10000 nM; with MYB mRNA (setting [4]), under 100 nM; in the experiment with MYB mRNA (setting [5]), under 100 nM. The AC50 is 100 to 1000 nM with HTT mRNA (setting [3]) and under 100 nM with MYB mRNA (setting [3]).

The IC50 is the concentration that gives 50% inhibition. Broadly, the AC50 is the concentration at which the activity in the assay is half-maximal.
